SMILES strings stand for the structures. Values joined by “and” are separate entries in the source; they are usually repeats but may differ in a detail not shown here. Equal entries are not always repeated.

The values that follow come from patent KR20110062313A, “시티딘을 포함하는 약제학적 조성물” (주식회사 머젠스, priority 2009, dated 2011).

For assay [1], the system named is dry eye model in CBA/J mice (CBA/J 마우스의 건성안 모델). Type of assay: in vivo, mouse.
The subject of assay [2] is HCE-T (human cornea epithelial cell) (HCE-T(사람 각막 상피 세포)). Briefly: Hyaluronic acid amount in HCE-T medium by hyaluronan-ELISA. Details: dose or concentration left out as unconfirmed. Particulars: 1 ml medium containing cytidine, 72 h, 37℃. It is filed as cell-based. A general note: In an ELISA, binding on a coated surface is turned into a signal by an enzyme label.

Regarding `Nc1ccn([C@@H]2O[C@H](CO)[C@@H](O)[C@H]2O)c(=O)n1` [시티딘], in assay [1] (N 8), the “tear volume (mean)” value is 7.39 and 4.54 and 6.18 and 7.03. Besides, in assay [1] (mouse, in vivo), the “tear volume compared with control group” value was “유의하게 눈물의 양이 증가” and the “tear volume compared with normal group” value was “정상군에 해당하는 눈물량의 분비”. The “amount of hyaluronic acid (mean)” value in assay [2] is 88.9. Also, the “amount of hyaluronic acid compared with control group” value in assay [2] (versus control) is “히아루론산의 양이 대조군에 비하여 증가하지 않음”.
